# Key:
# pKa of compound 1 = type: physicochemical; conditions: weak base
# Source text: (§1) Compound 1 is being evaluated in the clinic for the treatment of liver infection caused by hepatitis C virus. The estimated daily dose is 1 g-2 g requiring high drug loading in the drug product to provide the best treatment regimen for the patients. […] The high dose and need for an immediate release profile are further complicated by the low bulk density of the drug substance (0.04 to 0.3 g/cc). The conventional manufacturing technologies employing commonly used excipients require the use of multiple densification steps as well as high amounts of excipients such as binders. In addition to the multi-step manufacturing process, the high usage of binder has a negative impact on the dissolution of the product resulting in lower bioavailability.
# [1] = pH solubility profile of compound 1 at room temperature (FIG. 1); type: physicochemical; conditions: pH>4, FIG. 1
# Source text: as §1
# FIG. 1 provides a graph illustrating the pH solubility profile of compound 1 at room temperature.
structure (smiles),measurement,setting,value
"CC(C)C(=O)OC[C@H]1O[C@@H](n2ccc(N)nc2=O)[C@](C)(F)[C@@H]1OC(=O)C(C)C [Compound 1, Isobutyric acid (2R,3R,4R,5R)-5-(4-amino-2-oxo-2H-pyrimidin-1-yl)-4-fluoro-2-isobutyryloxymethyl-4-methyl-tetrahydro-furan-3-yl ester]",pKa,pKa of compound 1,3.5
same,drug solubility vs pH,[1],drops precipitously

# — patent US8222230B2, “Pharmaceutical compositions with superior product performance and patient compliance” (Hoffmann-La Roche Inc., priority 2009, dated 2012)
